Results from patent US10988523B2, “Modified lipidated Relaxin B chain peptides and their therapeutic use” (Sanofi, priority 2018, dated 2021).
≈ marks a conversion by molar mass, not a printed value. Like-named read-outs stand apart in the source and are kept apart here. *1 amine or outer side, *2 acyl side, *3 side chain or, on linkers, in order; H or OH if unused. Where a SMILES comes first, the peptide text is derived from it. Side-chain parts run from the residue outwards. [ ]: non-standard residue; d: D form. The star is where a group is joined. X7 = CCCCCCCCCCCCCCCCCC(=O)N[C@@H](CCC(=O)N[C@@H](CCC(=O)N[C@@H](CCC(=O)NCCCOCCOCCOCCCNC(=O)COCC(=O)NCCCOCCOCCOCCCNC(=O)COCC(=O)*)C(=O)O)C(=O)O)C(=O)O; PEG12 = NCCOCCOCCOCCOCCOCCOCCOCCOCCOCCOCCOCCOCCC(=O)O; γGlu = O=C(O)[C@H](CCC(=O)[*:2])N[*:1]; Palmitoyl = CCCCCCCCCCCCCCCC(=O)*; Nle = CCCC[C@H](N)C(=O)O; AEEA = NCCOCCOCC(=O)O; Aib = CC(C)(N)C(=O)O

Columns and labels:
RXFP1 = target: T1, RXFP1 (Homo sapiens, UniProt Q9HBX9); experiment: OVCAR5 cAMP assay (HTRF), RXFP1 agonist activity; type: cell-based; details: for Emax: OVCAR-5, maximal cAMP relative to H2-relaxin maximum (100%), read-out: EMax, OVCAR 5 cells (cAMP)
T1 construct: OVCAR5 cells expressing endogenous RXFP1; endogenous in cells; host or cells: OVCAR5 cells
T1 sequence (Q9HBX9 1-757): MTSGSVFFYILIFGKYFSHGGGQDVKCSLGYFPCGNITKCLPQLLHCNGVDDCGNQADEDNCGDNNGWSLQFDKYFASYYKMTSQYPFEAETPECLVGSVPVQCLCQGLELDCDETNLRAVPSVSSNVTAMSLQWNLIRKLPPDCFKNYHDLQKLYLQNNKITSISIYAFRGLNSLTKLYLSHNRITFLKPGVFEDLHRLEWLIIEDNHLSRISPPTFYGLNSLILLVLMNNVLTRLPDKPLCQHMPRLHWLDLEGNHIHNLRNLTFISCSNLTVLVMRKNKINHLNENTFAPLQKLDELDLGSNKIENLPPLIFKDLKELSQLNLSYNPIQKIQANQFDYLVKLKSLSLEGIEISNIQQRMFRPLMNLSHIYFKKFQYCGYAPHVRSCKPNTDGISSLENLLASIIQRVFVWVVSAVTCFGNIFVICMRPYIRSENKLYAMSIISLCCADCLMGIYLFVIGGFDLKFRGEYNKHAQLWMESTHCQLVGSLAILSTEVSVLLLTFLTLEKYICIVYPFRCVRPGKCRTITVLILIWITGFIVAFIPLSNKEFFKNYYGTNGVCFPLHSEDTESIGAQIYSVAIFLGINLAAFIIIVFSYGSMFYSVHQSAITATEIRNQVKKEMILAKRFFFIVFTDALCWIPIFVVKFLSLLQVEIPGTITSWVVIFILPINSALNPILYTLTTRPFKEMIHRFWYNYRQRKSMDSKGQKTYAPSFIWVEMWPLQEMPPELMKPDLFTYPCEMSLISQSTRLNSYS
How it was run: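 cAMP accumulation readout: after 1 mM IBMX for 40 min, endogenous-RXFP1 OVCAR5 cells got rising peptide concentrations without FCS, 30 min, 37° C, then lysis with HTRF cAMP reagents. Nonlinear regression gave EC50; Emax expressed relative to H2-relaxin maximum, same occasion.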

[1] = Solubility testing of peptides in buffer; type: physicochemical
Method: Prior to the testing of solubility of a peptide batch, its purity (HPLC-UV) was determined.
Acetate Buffer 50 mM pH4.5: 0.75 g […], 3H2O (Sigma 57545)+0.35 ml CH3CO2H 100% solution dissolved in Millipore water, adjusted to pH with diluted (1:1) CH3CO2H and diluted to 250 ml with Millipore water.
In a 4 ml Ependorph vial, an accurately weighed sample of compound was diluted in study media to obtain target concentration of 2, 6 or 10 mg/ml of pure compound. The sample vials were shacked (rock 'roll shaker) for ˜19 h. 3004, Aliquots ( ) were filtered through a Millipore “Solvinert” plate (0.45 μm—PTFE hydrophilic).
pH was measured with a micro electrode
Waters Acquity UPLC System with DAD detector
Column: Waters Peptide Column CSH C18 (130 Å; 1.7 μm; 50*2.1 mm)
Column temperature: 60° C.
Full loop (about 5 μL)—overfill factor 5
Weak et Strong wash: H2O/ACN (75/25; V/V); Seal wash: H2O/IsOH (95/5; V/V). Mobile phase:
Solvent A: 0.05% TFA in H2O; Solvent B: 0.035% TFA in CH3CN
Gradient: from 0 to 12 min B=2% to 60%, from 12 to 14 min B=60% to 100%. Column washing 100% B 1 min, column equilibration 2% B 2.5 min.
UV detector: wavelength: 220 nm.

[2] = Pharmacokinetic (PK) determination after i.v. or s.c. administration to rats; type: in vivo, Sprague Dawley rats; details: Sprague Dawley, Rat PK; for C0 / half-life: iv, 1 mg/kg i.v.; for C0: extrapolated plasma concentration at t=0, read-out: C0; for half-life / Cmax / Tmax / bioavailability: plasma; for half-life: read-out: T½ (converted); for Cmax / Tmax: sc, 3 mg/kg s.c.; for bioavailability: subcutaneous, 3 mg/kg s.c. vs 1 mg/kg i.v., dose-corrected AUC ratio
How it was run: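 Non-compartmental analysis of plasma LC/MS data (protein precipitation, BLQ taken as zero) gave T½, C0 (i.v.), Cmax/Tmax (s.c.) and F% from dose-corrected AUCs. Dosing: 3 mg/kg s.c. or 1 mg/kg i.v. in PBS to Sprague Dawley rats, purity- and salt-corrected.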

[3] = Stability testing of peptides in human plasma or blood; type: in vitro ADME; details: 37° C.
Method: (§1) Prior to the testing of stability in plasma (or blood) of a peptide batch, its purity (HPLC-UV) was determined.
(§2) Rat and Human plasma: anti-coagulant sodium or lithium heparin.
(§3) Rat and Human blood: anti-coagulant sodium or lithium heparin. • Stock solution: • 100 μM solution of study compound in 50 mM Phosphate buffer pH 7.4. • 950 μL plasma (or blood) was pre-incubated for 5 min at 37° C. 50 μL of compound stock solution was added. Final compound concentration=5 μM. Vortex and transfer 1504, plasma (or blood) into an Eppendorf for each time point. The time points […] were carried out in duplicate for each species.
(§4) After incubation 150 μL, plasma (or blood) was extracted with 600 μL, Acetonitrile containing with 1% TFA. Then, vortexed and centrifuged 10 min at 14600 rpm. 200 μL supernatant was dried under N2. The sample was reconstituted in 200 μL of H2O/CH3CN 98/2+0.1% FA+50 ng/ml Labetalol and analyzed using the analytical system used in solubility and stability studies.
(§5) For determination of the amount of the remaining peptide, the peak areas of the target compound at t0 and each time point […] were compared, resulting in “% remaining peptide”, following the equation: % remaining peptide=[(peak area peptide time)×100]/peak area peptide t0. The stability is expressed as “% remaining peptide”.

[4] = Stability testing of peptides in rat plasma or blood; type: in vitro ADME; details: 37° C.
Method: as §1, §2, §3, §4, §5

[5] = acetate buffer, pH 4.5, read-out: Solubility Acetate buffer pH 4.5
[6] = phosphate buffer, pH 7.4, read-out: Solubility phosphate buffer pH 7.4

| Compound | Emax (RXFP1) | solubility [1, 5] | solubility [1, 6] | EC50 (RXFP1; OVCAR5 cells, cAMP HTRF, read-out: EC50 (nM), OVCAR 5 cells (cAMP)) | C0 [2] | half-life [2] | Cmax [2] | Tmax [2] | bioavailability [2] | Human Plasma stability % remaining T = 0 ([3]; human plasma or blood, T = 0 (reference), 5 μM) | remaining at 1 h, 5 µM ([3]; whole blood, human blood, 1 h, read-out: Human stability in blood % remaining 1 h) | remaining at 4 h, 5 µM ([3]; whole blood, human blood, 4 h, read-out: Human stability in blood % remaining 4 h) | Rat plasma stability % remaining T = 0 ([4]; rat plasma or blood, T = 0 (reference), 5 μM) | remaining at 1 h, 5 µM ([4]; whole blood, rat blood, 1 h, read-out: Rat stability in blood % remaining 1 h) | remaining at 4 h, 5 µM ([4]; whole blood, rat blood, 4 h, read-out: Rat stability in blood % remaining 4 h) |
| --- | --- | --- | --- | --- | --- | --- | --- | --- | --- | --- | --- | --- | --- | --- | --- |
| CCCCCCCCCCCCCCCCCC(=O)N[C@@H](CCC(=O)N[C@@H](CCC(=O)N[C@@H](CCC(=O)NCCCOCCOCCOCCCNC(=O)COCC(=O)NCCCOCCOCCOCCCNC(=O)COCC(=O)NCCCC[C@H](NC(=O)[C@H](CCCCNC(C)=O)NC(=O)[C@H](CCCCN)NC(=O)[C@H](CCCNC(=N)N)NC(=O)C(C)(C)NC(=O)[C@H](CO)NC(=O)[C@H](Cc1c[nH]c2ccccc12)NC(=O)[C@@H](NC(=O)[C@H](CO)NC(=O)[C@H](CCCC)NC(=O)CNC(=O)[C@H](CCC(=O)O)NC(=O)C(C)(C)NC(=O)C(C)(C)NC(=O)[C@@H](NC(=O)[C@H](CCCCNC(C)=O)NC(=O)[C@H](C)NC(=O)[C@H](CCCNC(=N)N)NC(=O)[C@@H](NC(=O)[C@H](CCCCN)NC(=O)[C@H](CCC(=O)O)NC(=O)[C@H](CCCNC(=N)N)NC(=O)CNC(=O)[C@H](CCC(=O)O)NC(=O)[C@H](CC(C)C)NC(C)=O)C(C)C)[C@@H](C)CC)[C@@H](C)O)C(N)=O)C(=O)O)C(=O)O)C(=O)O [compound 95] (Ac-LEGREKVRAK(Ac)I[Aib][Aib]EG[Nle]STWS[Aib]RKK(Ac)K(X7)-NH2) | 87% | 5.6 mg/mL (≈ 1310 µM) | 5.6 mg/mL (≈ 1310 µM) | – | – | – | – | – | – | – | – | – | – | – | – |
| CCCCCCCCCCCCCCCC(=O)N[C@@H](CCC(=O)NCCCC[C@H](NC(=O)CC[C@H](NC(=O)CC[C@H](NC(=O)COCCOCCNC(=O)COCCOCCNC(=O)COCCOCCNC(=O)[C@H](CCCCN)NC(=O)[C@H](CCCCN)NC(=O)[C@H](CCCCN)NC(=O)[C@H](CCCNC(=N)N)NC(=O)C(C)(C)NC(=O)[C@H](CO)NC(=O)[C@H](Cc1c[nH]c2ccccc12)NC(=O)[C@@H](NC(=O)[C@H](CO)NC(=O)[C@H](CCCC)NC(=O)CNC(=O)[C@H](CCC(=O)O)NC(=O)C(C)(C)NC(=O)C(C)(C)NC(=O)[C@@H](NC(=O)[C@H](CCC(N)=O)NC(=O)[C@H](C)NC(=O)[C@H](CCCNC(=N)N)NC(=O)[C@@H](NC(=O)[C@H](CCCCN)NC(=O)[C@H](CCC(=O)O)NC(=O)[C@H](CCCNC(=N)N)NC(=O)CNC(=O)[C@H](CCC(=O)O)NC(=O)[C@H](CC(C)C)NC(C)=O)C(C)C)[C@@H](C)CC)[C@@H](C)O)C(=O)O)C(=O)O)C(N)=O)C(=O)O [compound 109] (Ac-LEGREKVRAQI[Aib][Aib]EG[Nle]STWS[Aib]RKKK[AEEA][AEEA][AEEA][γGlu][γGlu]K([γGlu-Palmitoyl])-NH2) | 98% | 5.9 mg/mL (≈ 1440 µM) | 5.9 mg/mL (≈ 1440 µM) | 0.15 nM | – | – | – | – | – | – | – | – | – | – | – |
| CCCCCCCCCCCCCCCC(=O)N[C@@H](CCC(=O)N[C@@H](CCC(=O)N[C@@H](CCC(=O)NCCCC[C@H](NC(=O)CCOCCOCCOCCOCCOCCOCCOCCOCCOCCOCCOCCOCCNC(=O)[C@H](CCCCN)NC(=O)[C@H](CCCNC(=N)N)NC(=O)C(C)(C)NC(=O)[C@H](CO)NC(=O)[C@H](Cc1c[nH]c2ccccc12)NC(=O)[C@@H](NC(=O)[C@H](CO)NC(=O)[C@H](CCSC)NC(=O)CNC(=O)[C@H](CCC(=O)O)NC(=O)C(C)(C)NC(=O)C(C)(C)NC(=O)[C@@H](NC(=O)[C@H](CCC(N)=O)NC(=O)[C@H](C)NC(=O)[C@H](CCCNC(=N)N)NC(=O)[C@@H](NC(=O)[C@H](CCCCN)NC(=O)[C@H](CCC(=O)O)NC(=O)[C@H](CCCNC(=N)N)NC(=O)CNC(=O)[C@H](CCC(=O)O)NC(=O)[C@H](CC(C)C)NC(C)=O)C(C)C)[C@@H](C)CC)[C@@H](C)O)C(N)=O)C(=O)O)C(=O)O)C(=O)O [compound 23] (Ac-LEGREKVRAQI[Aib][Aib]EGMSTWS[Aib]RK[PEG12]K([γGlu-γGlu-γGlu-Palmitoyl])-NH2) | 89% | 7 mg/mL (≈ 1740 µM) | 7 mg/mL (≈ 1740 µM) | – | 2.9 µM | 8.96 h | 1.7 µM | 6 h | 84% | – | – | – | – | – | – |
| CCCCCCCCCCCCCCCC(=O)N[C@@H](CCC(=O)N[C@@H](CCC(=O)N[C@@H](CCC(=O)NCCOCCOCC(=O)NCCOCCOCC(=O)NCCOCCOCC(=O)NCCCC[C@H](NC(=O)[C@H](CCCCNC(C)=O)NC(=O)[C@H](CCCCN)NC(=O)[C@H](CCCNC(=N)N)NC(=O)C(C)(C)NC(=O)[C@H](CO)NC(=O)[C@H](Cc1c[nH]c2ccccc12)NC(=O)[C@@H](NC(=O)[C@H](CO)NC(=O)[C@H](CCCC)NC(=O)CNC(=O)[C@H](CCC(=O)O)NC(=O)C(C)(C)NC(=O)C(C)(C)NC(=O)[C@@H](NC(=O)[C@H](CCCCNC(C)=O)NC(=O)[C@H](C)NC(=O)[C@H](CCCNC(=N)N)NC(=O)[C@@H](NC(=O)[C@H](CCCCN)NC(=O)[C@H](CCC(=O)O)NC(=O)[C@H](CCCNC(=N)N)NC(=O)CNC(=O)[C@H](CCC(=O)O)NC(=O)[C@H](CC(C)C)NC(C)=O)C(C)C)[C@@H](C)CC)[C@@H](C)O)C(N)=O)C(=O)O)C(=O)O)C(=O)O [compound 63] (Ac-LEGREKVRAK(Ac)I[Aib][Aib]EG[Nle]STWS[Aib]RKK(Ac)K([AEEA-AEEA-AEEA-γGlu-γGlu-γGlu-Palmitoyl])-NH2) | 80% | – | – | – | 6.02 µM | 5.72 h | 2.4 µM | 10 h | 47% | 100% | 93% | 87% | 100% | 95% | 79% |
